Source: patent US10729668B2, “Ketobutyrate compounds and compositions for treating age-related symptoms and diseases” (The Regents of the University of California, priority 2014, dated 2020)

Assays:
[1] = test system: NADH dehydrogenase; assay: Electron flow assay, isolated liver mitochondria; assay type: biochemical, mouse
Description: Animal studies were performed under approved UCLA animal research protocols. Mitochondria from 3-month-old C57BL/6 mice were isolated. Briefly, livers were extracted, minced at 4° C. in MSHE+BSA (70 mM sucrose, 210 mM mannitol, 5 mM HEPES, 1 mM EGTA, and 0.5% fatty acid free BSA, pH 7.2), and rinsed several times to remove blood. All subsequent steps were performed on ice or at 4° C. The tissue was disrupted in 10 volumes of MSHE+BSA with a glass Dounce homogenizer (5-6 strokes) and the homogenate was centrifuged at 800×g for 10 minutes to remove tissue debris and nuclei. The supernatant was decanted through a cell strainer and centrifuged at 8,000×g for 10 minutes. […] Isolated mitochondrial respiration was measured by running coupling and electron flow assays as described. […] After basal readings, the sequential injections were as follows: 2 μM rotenone (Complex I inhibitor), 10 mM succinate (Complex II substrate), 4 μM antimycin A (Complex III inhibitor), and 10 mM/100 μM ascorbate/tetramethylphenylenediamine (Complex IV substrate). […]

[2] = test system: C2C12 Cells; assay: Oxygen consumption rate (OCR) in C2C12 cells, Seahorse XF-24; assay type: cell-based, mouse; conditions: 1 hour treatment
Description: Measurement of oxygen consumption rates (OCR). OCR measurements were made using a Seahorse XF-24 analyzer (Seahorse Bioscience). C2C12 Cells were seeded in Seahorse XF-24 cell culture microplates at 30,000 cells per well in DMEM media supplemented with 10% FBS and 10 mM glucose, and incubated at 37° C. and 5% CO2 overnight. Treatment with α-KB or DMSO (vehicle control) was for 1 hour. Cells were washed in unbuffered DMEM medium (pH 7.4, 10 mM glucose) just before measurements, and maintained in this buffer with indicated concentrations of α-KB. OCR was measured three times under basal conditions and normalized to protein concentration per well.

[3] = target: T1, Complex II (Mus musculus, UniProt Q8K2B3+Q9CQA3+Q9CXV1+Q9CZB0); assay: Complex II driven coupling assay, isolated liver mitochondria (succinate and rotenone); assay type: biochemical; conditions: succinate supplemented
T1 construct: Mitochondria were isolated from mouse liver as described earlier; from tissue; host or cells: liver mitochondria of 3-month-old C57BL/6 mice
Description: Animal studies were performed under approved UCLA animal research protocols. Mitochondria from 3-month-old C57BL/6 mice were isolated. Briefly, livers were extracted, minced at 4° C. in MSHE+BSA (70 mM sucrose, 210 mM mannitol, 5 mM HEPES, 1 mM EGTA, and 0.5% fatty acid free BSA, pH 7.2), and rinsed several times to remove blood. All subsequent steps were performed on ice or at 4° C. The tissue was disrupted in 10 volumes of MSHE+BSA with a glass Dounce homogenizer (5-6 strokes) and the homogenate was centrifuged at 800×g for 10 minutes to remove tissue debris and nuclei. The supernatant was decanted through a cell strainer and centrifuged at 8,000×g for 10 minutes. The dark mitochondrial pellet was resuspended in MSHE+BSA and re-centrifuged at 8,000×g for 10 minutes. The final mitochondrial pellet was resuspended in 30 μl of MAS buffer (70 mM sucrose, 220 mM mannitol, 10 mM KH2PO4, 5 mM MgCl2, 2 mM HEPES, 1 mM EGTA, and 0.2% fatty acid free BSA, pH 7.2). Isolated mitochondrial respiration was measured by running coupling and electron flow assays as described. […]
Mitochondrial respiration was measured by running coupling and electron flow assays. […]

T1 sequence (Q8K2B3 43-664): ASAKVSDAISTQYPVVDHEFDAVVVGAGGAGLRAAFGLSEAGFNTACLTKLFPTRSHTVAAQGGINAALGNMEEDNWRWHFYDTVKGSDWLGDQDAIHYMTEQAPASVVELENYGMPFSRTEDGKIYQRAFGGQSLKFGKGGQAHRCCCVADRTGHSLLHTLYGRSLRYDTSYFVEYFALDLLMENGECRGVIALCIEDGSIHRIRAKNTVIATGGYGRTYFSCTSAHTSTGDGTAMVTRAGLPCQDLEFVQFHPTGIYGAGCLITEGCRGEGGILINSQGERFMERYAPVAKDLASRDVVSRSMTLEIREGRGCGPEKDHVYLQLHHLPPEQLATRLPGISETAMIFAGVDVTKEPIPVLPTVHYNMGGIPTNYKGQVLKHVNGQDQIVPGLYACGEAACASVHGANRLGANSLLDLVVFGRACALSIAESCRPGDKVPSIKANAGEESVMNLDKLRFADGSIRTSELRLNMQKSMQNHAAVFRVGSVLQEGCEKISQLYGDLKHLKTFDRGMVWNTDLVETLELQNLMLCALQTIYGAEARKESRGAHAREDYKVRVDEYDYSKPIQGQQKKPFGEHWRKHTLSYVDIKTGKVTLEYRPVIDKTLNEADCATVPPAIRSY
T1 sequence (Q9CQA3 31-282): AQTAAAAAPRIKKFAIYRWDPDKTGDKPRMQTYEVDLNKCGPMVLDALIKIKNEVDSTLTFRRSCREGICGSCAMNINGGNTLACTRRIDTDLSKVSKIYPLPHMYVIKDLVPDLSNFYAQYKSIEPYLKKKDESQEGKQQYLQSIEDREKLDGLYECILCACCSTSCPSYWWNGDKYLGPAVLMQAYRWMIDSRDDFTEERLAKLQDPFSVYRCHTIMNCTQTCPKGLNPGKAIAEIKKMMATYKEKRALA
T1 sequence (Q9CZB0 30-169): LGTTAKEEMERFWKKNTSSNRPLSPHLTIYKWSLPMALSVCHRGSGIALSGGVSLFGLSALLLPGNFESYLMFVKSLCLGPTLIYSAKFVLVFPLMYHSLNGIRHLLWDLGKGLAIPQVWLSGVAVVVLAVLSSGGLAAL
T1 sequence (Q9CXV1 57-159): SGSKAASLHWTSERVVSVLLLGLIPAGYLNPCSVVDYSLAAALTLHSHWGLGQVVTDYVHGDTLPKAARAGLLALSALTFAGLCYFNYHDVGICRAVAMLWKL

## C[C@@H](O)CC(=O)O [3-HB, (R)-3-hydroxybutyrate, reference compound]
[1]
  respiration in electron flow assay: does not affect
[2]
  basal respiration: does not have any effect
  maximal respiration (mitochondrial respiration upon FCCP treatment): does not have any effect
[3]
  mitochondrial respiration, Complex II-driven coupling: does not affect
